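Results reflect a 48-hour exposure of cells in 96-well plates to compound at five concentrations. The concentration for 50% growth inhibition is given as GI50.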 Calls of active or inactive are those of the source. Cut-off read from the data, not from the text of the source: active = GI50 up to about 1.1 µM and inactive = higher.
Assays:
Test in all cases: DTP human tumour cell line panel, 48 h
[1] = system: MDA-MB-231
[2] = system: IGROV-1
[3] = system: HCT-15
[4] = system: T47D
[5] = system: K562
[6] = system: NCI/ADR-RES
[7] = system: UO-31
[8] = system: CCRF-CEM
[9] = system: NCI-H23
[10] = system: UACC-62
[11] = system: KM12
[12] = system: U-251
[13] = system: NCI-H460
[14] = system: SF-295
[15] = system: SK-MEL-28
[16] = system: UACC-257
[17] = system: SK-MEL-5
[18] = system: SK-MEL-2
[19] = system: MCF7
[20] = system: SR

Compound | GI50 [1] | GI50 [2] | GI50 [3] [µM] | GI50 [4] | GI50 [5] | GI50 [6] | GI50 [7] | GI50 [8] | GI50 [9] | GI50 [10] | GI50 [11] | GI50 [12] | GI50 [13] | GI50 [14] | GI50 [15] | GI50 [16] | GI50 [17] | GI50 [18] | GI50 [19] | GI50 [20]
COc1ccc(OC)c2c(C)ccnc12 | 34 µM (inactive) | 10.7 µM (inactive) | 4.25 | 22.5 µM (inactive) | > 37.7 µM (inactive) | 12.9 µM (inactive) | 6.78 µM (inactive) | 5.25 µM (inactive) | 27.2 µM (inactive) | 25.3 µM (inactive) | 37.2 µM (inactive) | 16.4 µM (inactive) | 21.7 µM (inactive) | 16.5 µM (inactive) | 36.6 µM (inactive) | 33.7 µM (inactive) | 22.2 µM (inactive) | 22.8 µM (inactive) | 9.04 µM (inactive) | 
CC(=O)C(=N\Nc1ccc(Cl)cc1)/C(C)=N/c1ccc(C)cc1 | 37.5 µM (inactive) | 32.7 µM (inactive) | 45.6 | 38.5 µM (inactive) | 33 µM (inactive) | 25.6 µM (inactive) | 30.1 µM (inactive) | 11.2 µM (inactive) | 38.1 µM (inactive) | 49.1 µM (inactive) | 27.1 µM (inactive) | 31.6 µM (inactive) |  | 32.4 µM (inactive) | 48.8 µM (inactive) | 53.2 µM (inactive) | 19 µM (inactive) | 18.4 µM (inactive) |  | > 100 µM (inactive)
COc1ccccc1/C=C\c1cnnc2ccccc12 | > 10 µM (inactive) | 8.63 µM (inactive) | > 10 | > 10 µM (inactive) | 4.7 µM (inactive) | > 10 µM (inactive) |  | 6.59 µM (inactive) | > 10 µM (inactive) | > 10 µM (inactive) | > 10 µM (inactive) | > 10 µM (inactive) | > 10 µM (inactive) | > 10 µM (inactive) | > 10 µM (inactive) | > 10 µM (inactive) | 6.71 µM (inactive) | > 10 µM (inactive) | 3.56 µM (inactive) | 
COC(=O)[C@H](Cc1ccccc1)NC(=O)OCC1OC(n2cc(C)c(=O)[nH]c2=O)CC1N=[N+]=[N-] (stereo partly specified) | > 100 µM (inactive) | > 100 µM (inactive) | > 100 | > 100 µM (inactive) | > 100 µM (inactive) | > 100 µM (inactive) | > 100 µM (inactive) | > 100 µM (inactive) | > 100 µM (inactive) | > 100 µM (inactive) | > 100 µM (inactive) | > 100 µM (inactive) | > 100 µM (inactive) | > 100 µM (inactive) |  | > 100 µM (inactive) | 4.12 µM (inactive) | > 100 µM (inactive) | > 100 µM (inactive) | 
CC1(C)CCCCCCC2CC2CCCCCC(C)(C)C1=O (stereo unspecified) | 60.3 µM (inactive) | > 100 µM (inactive) | 78.7 | 36.9 µM (inactive) | 29.9 µM (inactive) | 99.3 µM (inactive) | > 100 µM (inactive) | 19.1 µM (inactive) | 69.2 µM (inactive) | > 100 µM (inactive) | 92.5 µM (inactive) | 36.6 µM (inactive) | 66.2 µM (inactive) | > 100 µM (inactive) | > 100 µM (inactive) | 37.8 µM (inactive) | 49.7 µM (inactive) | 40.6 µM (inactive) |  | 0.787 µM (active)
O=C1CNCCCN2CCN(CCCNCC(=O)Nc3ccc(cc3)S(=O)(=O)c3ccc(cc3)NC(=O)CNCCCN3CCN(CCCNCC(=O)Nc4ccc(cc4)S(=O)(=O)c4ccc(cc4)N1)CC3)CC2 | 22.5 µM (inactive) | 21.2 µM (inactive) | 21 | 27.9 µM (inactive) | 22.3 µM (inactive) | 40.3 µM (inactive) | 61 µM (inactive) | 1.57 µM (inactive) | 30.3 µM (inactive) | 32.9 µM (inactive) | 27.2 µM (inactive) | 24.5 µM (inactive) | 10.4 µM (inactive) | 20.5 µM (inactive) | 22.3 µM (inactive) | 17 µM (inactive) | 25.1 µM (inactive) | 35.1 µM (inactive) | 46.1 µM (inactive) | 

— ChEMBL document CHEMBL1201862, “PubChem BioAssay data set” (2004)
